Here are results for six molecules from PMC11739737 (Clinical Pharmacology and Therapeutics, 2024).

The format of data set [1] is in vivo, human. The following applies: for Cmax: geometric mean (geometric %CV); for half-life: half‐life after T max.
A further data set deals with T1, recombinant NNMT protein (Homo sapiens, UniProt P40261).
T1 sequence (P40261 1-264): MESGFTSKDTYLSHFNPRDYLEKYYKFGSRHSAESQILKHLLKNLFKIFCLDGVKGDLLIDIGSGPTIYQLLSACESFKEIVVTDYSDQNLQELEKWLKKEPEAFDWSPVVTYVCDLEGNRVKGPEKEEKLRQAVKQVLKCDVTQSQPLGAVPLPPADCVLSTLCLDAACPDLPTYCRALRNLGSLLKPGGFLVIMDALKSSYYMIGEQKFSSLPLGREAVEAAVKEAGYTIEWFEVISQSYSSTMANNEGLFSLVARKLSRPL
The data set can be described thus: NNMT activity assay. The format is biochemical. To be noted: nicotinamide 100 μM, 37°C, 6 min.

Data set [2] has as its system OCT2 and MATE1/2-K. Kind of data set: clinical. To be noted: male, human, in vivo, geometric mean; for AUC(0-t): AUC0–8hour; for CL renal: CLr (0–8 h).
For data set [3] the following is noted: cited from earlier work.
The target in another data set is T2, MATE1 (Homo sapiens, UniProt Q96FL8).
T2 sequence (Q96FL8 1-570): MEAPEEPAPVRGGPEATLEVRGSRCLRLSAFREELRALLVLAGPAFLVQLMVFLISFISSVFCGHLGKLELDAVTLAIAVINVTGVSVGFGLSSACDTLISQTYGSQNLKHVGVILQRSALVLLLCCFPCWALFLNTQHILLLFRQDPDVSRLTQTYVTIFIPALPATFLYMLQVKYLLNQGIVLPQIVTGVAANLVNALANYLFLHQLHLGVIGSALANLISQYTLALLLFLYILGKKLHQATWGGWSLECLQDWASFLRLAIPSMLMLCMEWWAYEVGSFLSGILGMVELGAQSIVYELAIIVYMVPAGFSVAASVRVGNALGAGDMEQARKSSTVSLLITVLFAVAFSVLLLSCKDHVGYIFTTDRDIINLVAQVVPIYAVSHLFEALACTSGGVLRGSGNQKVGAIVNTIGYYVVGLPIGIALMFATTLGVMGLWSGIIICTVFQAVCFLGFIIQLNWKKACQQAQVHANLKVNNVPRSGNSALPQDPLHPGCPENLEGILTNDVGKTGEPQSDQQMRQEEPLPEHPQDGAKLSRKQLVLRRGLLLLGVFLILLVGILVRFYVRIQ
Kind of data set: Inhibition of MATE1-mediated metformin uptake in MATE1-HEK293 cells. It is filed as in vitro ADME. To be noted: K i for MATE1, metformin (10 μM) uptake, 37°C, MATE1-HEK; average of experiments.

The next data set has as its target MATE2‐K (Homo sapiens, UniProt Q86VL8). The data set can be described thus: Inhibition of MATE2‐K-mediated metformin uptake in MATE2‐K-HEK293 cells. It is filed as in vitro ADME.
Another data set deals with T3, OCT2 (Homo sapiens, UniProt O15244).
T3 sequence (O15244 1-555): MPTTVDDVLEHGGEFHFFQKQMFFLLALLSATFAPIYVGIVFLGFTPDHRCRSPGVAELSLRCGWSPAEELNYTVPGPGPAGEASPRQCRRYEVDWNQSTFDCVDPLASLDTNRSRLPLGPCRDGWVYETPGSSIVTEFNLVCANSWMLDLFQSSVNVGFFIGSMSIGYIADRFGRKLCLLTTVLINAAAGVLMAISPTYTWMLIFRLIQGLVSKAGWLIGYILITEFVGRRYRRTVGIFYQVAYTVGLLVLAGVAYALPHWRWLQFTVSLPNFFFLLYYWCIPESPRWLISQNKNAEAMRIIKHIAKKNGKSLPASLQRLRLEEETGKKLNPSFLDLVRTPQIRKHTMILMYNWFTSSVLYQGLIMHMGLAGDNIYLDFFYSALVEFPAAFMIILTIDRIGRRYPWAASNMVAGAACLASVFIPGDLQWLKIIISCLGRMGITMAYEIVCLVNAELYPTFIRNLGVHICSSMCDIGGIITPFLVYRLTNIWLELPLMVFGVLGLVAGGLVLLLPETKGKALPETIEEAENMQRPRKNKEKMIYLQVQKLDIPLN
Kind of data set: Inhibition of OCT2-mediated metformin uptake in OCT2-HEK293 cells. It is filed as in vitro ADME. To be noted: HEK293 cells stably expressing OCT2, pH 7.4, probe metformin (10 μM).

Data set [4] relates to OCT2 and MATE1/2-K. The data set can be described thus: clinical. The following applies: male, human, in vivo; for AUC(0-t): AUC0–24hour, geometric mean; for Cmax: C max of metformin; for Cmax / CL renal: geometric mean (geometric %CV); for CL renal: CLr of metformin (0–24 hour).
Data set [5] has as its system OCT2 and MATE1/2‐K. The following applies: for fe of metformin (fraction recovered in the urine): geometric mean (geometric %CV).
Data set [6] concerns OCT2 and MATE1/2‐K. To be noted: at fifth dose of dolutegravir.
The next data set deals with OAT1/3. The format is in vivo, human.
Where [7] appears, read: dolutegravir (fifth) + metformin.
[8] abbreviates: dolutegravir (first) + metformin.
[9] abbreviates: male, human, plasma, oral, 50 mg.
Setting [10] is: 50 mg, with dolutegravir 50 mg BID, fifth dose.
[11] abbreviates: 50 mg, with dolutegravir 50 mg BID, first dose.

Read-outs that look alike come from different tables or passages of the source. Marks after values point to notes of the source that are not given here.

Sequence of MATE2‐K (Q86VL8 1-566 isoform Q86VL8-3): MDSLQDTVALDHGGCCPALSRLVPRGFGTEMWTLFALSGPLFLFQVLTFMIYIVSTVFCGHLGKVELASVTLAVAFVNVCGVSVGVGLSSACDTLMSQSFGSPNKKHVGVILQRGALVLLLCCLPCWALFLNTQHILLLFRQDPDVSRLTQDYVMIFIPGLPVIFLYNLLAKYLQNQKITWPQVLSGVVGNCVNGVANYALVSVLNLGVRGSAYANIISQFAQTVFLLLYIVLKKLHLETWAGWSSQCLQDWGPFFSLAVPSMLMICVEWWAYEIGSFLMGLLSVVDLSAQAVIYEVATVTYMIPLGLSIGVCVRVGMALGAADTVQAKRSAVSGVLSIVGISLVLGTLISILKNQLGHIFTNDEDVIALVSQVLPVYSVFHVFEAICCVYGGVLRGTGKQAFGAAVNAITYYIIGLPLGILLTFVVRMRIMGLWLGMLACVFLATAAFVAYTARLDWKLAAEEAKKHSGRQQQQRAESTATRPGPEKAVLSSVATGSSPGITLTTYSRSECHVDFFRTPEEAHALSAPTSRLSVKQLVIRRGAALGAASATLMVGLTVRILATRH

`CN/C(=N/CCSCc1nc[nH]c1C)NC#N` [Cimetidine]: the Cmax – broadly, the highest concentration seen after dosing – in data set [1] (male, human, plasma, oral, 800 mg, maximum plasma concentration (C max), cimetidine 800 mg) amounted to 25.7 µM. For the same molecule, the adverse event result in data set [1] (one subject, cimetidine 800 mg (Period 2), judged to have no causal relationship with the study drug) is recorded as “Vomiting”. For the same molecule, the “inhibition of the activity of NNMT” value at recombinant NNMT protein (cimetidine 20 μM) is listed as “eliminated the possibility”.
Regarding `CN1CC(=O)NC1=N` [Creatinine, creatinine], the AUC(0-t) (commonly the area under the concentration-time curve up to a stated or last time point) in the data set with OCT2 and MATE1/2-K [2] (baseline) was found to be 641 µM·h; with OCT2 and MATE1/2-K [2] (cimetidine 400 mg + metformin) it was 669 µM·h; in the data set on OCT2 and MATE1/2-K [2] (cimetidine 800 mg + metformin), 689 µM·h; in the data set on OCT2 and MATE1/2-K [2] (control (metformin alone)) it was 600 µM·h; with OCT2 and MATE1/2-K [2] (setting [7]) it was 691 µM·h; in the data set with OCT2 and MATE1/2-K [2] (setting [8]) it was 712 µM·h.
For `C[C@@H]1CCO[C@H]2Cn3cc(C(=O)NCc4ccc(F)cc4F)c(=O)c(O)c3C(=O)N12` [Dolutegravir], the “elimination half‐life” value in data set [3] is 13 to 14 h. The Ki (commonly a measure of affinity in units of concentration, obtained from inhibition or displacement) stood at 830 nM at MATE1 and 2970 ± 400 nM at MATE2‐K. Also, the AUC – broadly, the area under the concentration-time curve, a measure of exposure – in data set [1] (setting [9]) was 209 µM·h. In addition, in data set [1] (setting [9]), the AUC(0-inf) (commonly total exposure, with the tail of the curve extrapolated) was found to be 141 µM·h. For the same molecule, the peak concentration (Cmax) is 21.7 µM in [1] (male, human, plasma, oral, 50 mg, C max up to 12 hours after metformin administration, dolutegravir 50 mg BID, fifth dose) and 7.07 µM in [1] (male, human, plasma, oral, 50 mg, C max up to 12 hours after metformin administration, dolutegravir 50 mg BID, first dose). For the same molecule, the half-life (commonly the time needed for the level to fall by half in the phase considered) is 16.6 ± 1.7 h in [1] (male, human, plasma, oral, 50 mg, dolutegravir 50 mg BID, fifth dose) and 13 ± 1.1 h in [1] (male, human, plasma, oral, 50 mg, dolutegravir 50 mg BID, first dose). In addition, at OCT2, affinity was put at a Ki at 2 min of 290 ± 40 nM. In addition, at recombinant NNMT protein (dolutegravir 30 μM), the “inhibition of the activity of NNMT” value was “eliminated the possibility”.
For `CN(C)C(=N)N=C(N)N` [Metformin], the AUC(0-t) came out at 213 µM·h in the data set with OCT2 and MATE1/2-K [4] (setting [10]); 123 µM·h with OCT2 and MATE1/2-K [4] (setting [11]); 154 µM·h with OCT2 and MATE1/2-K [4] (800 mg, with cimetidine 800 mg). Also, the Cmax in the data set with OCT2 and MATE1/2-K [4] (setting [10]) came out at 23.8 µM; in the data set with OCT2 and MATE1/2-K [4] (setting [11]), 17 µM; in the data set on OCT2 and MATE1/2-K [4] (800 mg, with cimetidine 800 mg) it was 28 µM. Moreover, the CL renal in the data set on OCT2 and MATE1/2-K [4] (setting [10]) amounted to 199 mL/min; in the data set with OCT2 and MATE1/2-K [4] (setting [11]), 339 mL/min; with OCT2 and MATE1/2-K [4] (800 mg, with cimetidine 800 mg) it was 269 mL/min. Moreover, the “decrease of CLr of metformin” value in the data set with OCT2 and MATE1/2‐K [5] (cimetidine 400 mg) was 15.5%; in the data set with OCT2 and MATE1/2‐K [5] (cimetidine 800 mg), 42.5%; in the data set on OCT2 and MATE1/2‐K [5] (dolutegravir fifth dose) it was 56.9%; in the data set on OCT2 and MATE1/2‐K [5] (dolutegravir first dose), 26.8%. For the same molecule, the “increase of AUC of metformin” value in the data set on OCT2 and MATE1/2‐K [5] (cimetidine 400 mg) turned out to be 1.7 times; with OCT2 and MATE1/2‐K [5] (cimetidine 800 mg) it was 2.2 times; in the data set on OCT2 and MATE1/2‐K [5] (fifth dose of dolutegravir) it was 3.0 times; with OCT2 and MATE1/2‐K [5] (first dose of dolutegravir), 1.8 times. Further, the “increase of C max of metformin” value in the data set on OCT2 and MATE1/2‐K [5] (co‐administration of cimetidine 400 mg) came to 2.1 times; with OCT2 and MATE1/2‐K [5] (co‐administration of cimetidine 800 mg) it was 2.7 times; in the data set on OCT2 and MATE1/2‐K [5] (fifth dose of dolutegravir) it was 2.3 times; in the data set on OCT2 and MATE1/2‐K [5] (first dose of dolutegravir), 1.6 times. Besides, the “fe of metformin (fraction recovered in the urine)” value with OCT2 and MATE1/2‐K [5] (metformin 500 mg alone (control)) is listed as 0.649 (13.7); in the data set with OCT2 and MATE1/2‐K [5] (with cimetidine 400 mg) it was 0.940 (13.9)***; in the data set on OCT2 and MATE1/2‐K [5] (with cimetidine 800 mg), 0.826 (22.1)**; with OCT2 and MATE1/2‐K [5] (with dolutegravir 50 mg BID, fifth dose) it was 0.844 (20.7)**; in the data set on OCT2 and MATE1/2‐K [5] (with dolutegravir 50 mg BID, first dose), 0.828 (20.6)**.
Turning to `Cn1cnc2c(ncn2[C@@H]2O[C@H](CO)[C@@H](O)[C@H]2O)c1=N` [m^1A, N1‐methyladenosine], the AUC(0-t) was 0.822 µM·h with OCT2 and MATE1/2-K [2] (baseline); 0.918 µM·h in the data set on OCT2 and MATE1/2-K [2] (cimetidine 400 mg + metformin); 0.984 µM·h with OCT2 and MATE1/2-K [2] (cimetidine 800 mg + metformin); 0.791 µM·h in the data set on OCT2 and MATE1/2-K [2] (control (metformin alone)); 1.12 µM·h with OCT2 and MATE1/2-K [2] (setting [7]); 0.977 µM·h with OCT2 and MATE1/2-K [2] (setting [8]). For the same molecule, the CL renal with OCT2 and MATE1/2-K [2] (baseline) was found to be 188 mL/min; in the data set on OCT2 and MATE1/2-K [2] (cimetidine 400 mg + metformin) it was 198 mL/min; in the data set on OCT2 and MATE1/2-K [2] (cimetidine 800 mg + metformin) it was 159 mL/min; in the data set on OCT2 and MATE1/2-K [2] (control (metformin alone)), 198 mL/min. In addition, in the data set on OCT2 and MATE1/2‐K [6], the “clearance for tubular secretion remaining (CLr minus creatinine CLr)” value was 29%.
`Cc1ncc(CO)c(C(=O)O)c1O` [pyridoxic acid]: in the data set on OAT1/3 (at fifth dose of dolutegravir), the “magnitude of inhibition of CLr” value is “at most 21%”. Further, the “change in CLr” value in the data set on OAT1/3 (with cimetidine) is given as “no change”.
